{
  "source": "patent US12617779B2",
  "about": "“Self degradation-type CDK9 inhibitor prodrug and liposome encapsulating same” (Sumitomo Pharma Co., Ltd., priority 2021, dated 2026)",
  "key": {"[1]": {"assay": "Evaluation of conversion rate to active form in human plasma (Experimental Example 3)", "assay_type": "in vitro ADME", "settings": "0.2 μmol/L, 37° C.; for Residual rate (%) of test compound: Human plasma", "procedure,_shortened": "(§1)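 Test compound at 0.2 μmol/L was incubated at 37° C in human or BALB/c mouse plasma and sampled at 0, 30 and 60 min or at 0, 60 and 120 min. Compound and Alvocidib were quantified by LC-MS/MS peak area. Attrition is relative to 0 min; conversion is relative to 0.2 μmol/L Alvocidib reference.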"}, "[2]": {"assay": "Evaluation of conversion rate to active form in BALB/c mouse plasma (Experimental Example 3)", "assay_type": "in vitro ADME", "settings": "0.2 μmol/L, 37° C.; for Residual rate (%) of test compound: Mouse plasma", "procedure,_shortened": "as §1"}, "[3]": {"assay": "Stability evaluation of solution formulation (Experimental Example 2)", "assay_type": "physicochemical", "settings": "for Production rate of Alvocidib / Residual rate: solution formulation", "procedure,_shortened": "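Compounds at 0.1 mg/mL in 5 mM tartrate/10% sucrose buffers at pH 3.0, 4.0 and 5.0, stored at 5° C. Residual compound and Alvocidib formation measured by HPLC (C18, 40° C, water-TFA/acetonitrile gradient, UV 254 nm) at 0, 1, 2 and 4 weeks.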"}},
  "data": [
    {"smiles": "CCCN(C[C@H]1CCCCN1)C(=O)Oc1cc(O)c2c(=O)cc(-c3ccccc3Cl)oc2c1[C@H]1CCN(C)C[C@H]1O", "note": "[Example 6, 2-(2-chlorophenyl)-5-hydroxy-8-[(3S,4R)-3-hydroxy-1-methylpiperidin-4-yl]-4-oxo-4H-1-benzopyran-7-yl {[(2R)-piperidin-2-yl]methyl}propylcarbamate]", "values": [
      {"measurement": "Residual rate (%) of test compound", "setting": "[1]; 0 min", "result": 100, "unit": "%"},
      {"measurement": "Residual rate (%) of test compound", "setting": "[1]; 30 min", "result": 3, "unit": "%"},
      {"measurement": "Residual rate (%) of test compound", "setting": "[1]; 60 min", "result": 2, "unit": "%"},
      {"measurement": "Conversion to Alvocidib in human plasma", "setting": "[1]; human plasma, Examples up to 60 minutes, Comparative Examples up to 120 minutes", "result": "proceeded rapidly"},
      {"measurement": "Conversion to Alvocidib in BALB/c mouse plasma", "setting": "[2]; BALB/c mouse plasma, Examples up to 60 minutes, Comparative Examples up to 120 minutes", "result": "proceeded rapidly"},
      {"measurement": "Residual rate (%) of test compound", "setting": "[2]; 0 min", "result": 100, "unit": "%"},
      {"measurement": "Residual rate (%) of test compound", "setting": "[2]; 30 min", "result": 26, "unit": "%"},
      {"measurement": "Residual rate (%) of test compound", "setting": "[2]; 60 min", "result": 2, "unit": "%"},
      {"measurement": "Stability / conversion to Alvocidib in solution formulation at pH 3", "setting": "[3]; pH 3, 5° C., up to 4 weeks", "result": "stable"},
      {"measurement": "Stability / conversion to Alvocidib in solution formulation at pH 4", "setting": "[3]; pH 4, 5° C., up to 4 weeks", "result": "stable"},
      {"measurement": "Production rate of Alvocidib", "setting": "[3]; pH3.0, 0 week", "result": 0.5, "unit": "%"},
      {"measurement": "Residual rate", "setting": "[3]; pH3.0, 0 week", "result": 98.8, "unit": "%"},
      {"measurement": "Production rate of Alvocidib", "setting": "[3]; pH3.0, 1 week", "result": 0.5, "unit": "%"},
      {"measurement": "Residual rate", "setting": "[3]; pH3.0, 1 week", "result": 98.8, "unit": "%"},
      {"measurement": "Production rate of Alvocidib", "setting": "[3]; pH3.0, 2 week", "result": 0.6, "unit": "%"},
      {"measurement": "Residual rate", "setting": "[3]; pH3.0, 2 week", "result": 98.8, "unit": "%"},
      {"measurement": "Production rate of Alvocidib", "setting": "[3]; pH3.0, 4 week", "result": 0.6, "unit": "%"},
      {"measurement": "Residual rate", "setting": "[3]; pH3.0, 4 week", "result": 98.8, "unit": "%"},
      {"measurement": "Production rate of Alvocidib", "setting": "[3]; pH4.0, 0 week", "result": 0.5, "unit": "%"},
      {"measurement": "Residual rate", "setting": "[3]; pH4.0, 0 week", "result": 98.8, "unit": "%"},
      {"measurement": "Production rate of Alvocidib", "setting": "[3]; pH4.0, 1 week", "result": 0.7, "unit": "%"},
      {"measurement": "Residual rate", "setting": "[3]; pH4.0, 1 week", "result": 98.7, "unit": "%"},
      {"measurement": "Production rate of Alvocidib", "setting": "[3]; pH4.0, 2 week", "result": 0.8, "unit": "%"},
      {"measurement": "Residual rate", "setting": "[3]; pH4.0, 2 week", "result": 98.5, "unit": "%"},
      {"measurement": "Production rate of Alvocidib", "setting": "[3]; pH4.0, 4 week", "result": 0.9, "unit": "%"},
      {"measurement": "Residual rate", "setting": "[3]; pH4.0, 4 week", "result": 98.2, "unit": "%"},
      {"measurement": "Production rate of Alvocidib", "setting": "[3]; pH5.0, 0 week", "result": 0.7, "unit": "%"},
      {"measurement": "Residual rate", "setting": "[3]; pH5.0, 0 week", "result": 98.7, "unit": "%"},
      {"measurement": "Production rate of Alvocidib", "setting": "[3]; pH5.0, 1 week", "result": 1.6, "unit": "%"},
      {"measurement": "Residual rate", "setting": "[3]; pH5.0, 1 week", "result": 97.0, "unit": "%"},
      {"measurement": "Production rate of Alvocidib", "setting": "[3]; pH5.0, 2 week", "result": 2.6, "unit": "%"},
      {"measurement": "Residual rate", "setting": "[3]; pH5.0, 2 week", "result": 95.3, "unit": "%"},
      {"measurement": "Production rate of Alvocidib", "setting": "[3]; pH5.0, 4 week", "result": 4.6, "unit": "%"},
      {"measurement": "Residual rate", "setting": "[3]; pH5.0, 4 week", "result": 91.8, "unit": "%"}
    ]}
  ]
}
